Test results published in publication PMC6277767, “Broad and Region-Specific Impacts of the Synthetic Cannabinoid CP 55,940 in Adolescent and Adult Female Mouse Brains” (Frontiers in Molecular Neuroscience, 2018).

System: CD1 female mouse brain lipidome
Experiment: Brain-region lipid levels (HPLC/MS/MS lipidomics) 2 h after single i.p. 3 mg/kg CP 55,940 vs vehicle
Type: in vivo
Experimental: The Bloomington Institutional Animal Care and Use Committee of Indiana University reviewed and approved the animal procedures. Female mice from the CD1 strain were utilized to match our study examining THC’s effects on the brain lipidome ([Leishman et al., 2018]). Mice were given a single i.p. injection of either 3 mg/kg CP or 1:1:18 cremophor:ethanol:saline vehicle (please refer to the section “3 mg/kg CP Is Relevant for Synthetic Cannabinoid Abuse and Has Stronger Effects on the Female Mouse Brain Lipidome During Adolescence” for a justification of dose and use of female mice). Three different age groups were given injections: PND 35 and PND 50 adolescents, and adult mice (PND 113). At least eight mice in each age group received CP and at least eight received vehicle. Matching the THC study time course ([Leishman et al., 2018]), mice were sacrificed via rapid decapitation 2 h after injection. Brains were immediately removed and flash-frozen in liquid nitrogen, and then stored at -80°C until dissections were performed. Brains were dissected on an ice-cold dissection plate into the following regions: STR, HIPP, CER, THAL, CTX, HYP, MID, and STEM. These abbreviations for these brain areas will be used exclusively when discussing the results generated by these specific dissections. Each dissected area was immediately placed in liquid nitrogen and then stored at -80°C until used for lipid extraction.
Tissue extracts were performed as previously described ([Bradshaw et al., 2006]; [Stuart et al., 2013]; [Raboune et al., 2014]; [Leishman et al., 2016a],[b], [2017], [2018]). First, samples were shock frozen in liquid nitrogen, weighed, and transferred to a centrifuge tube. The mass of the largest sample was multiplied by 50 to determine how many milliliters of HPLC-grade methanol (Fisher, Fair Lawn, NJ, United States) to add. Then, samples were spiked with 500 pmol deuterium-labeled NAGly (d8NAGly; Cayman Chemical, Ann Arbor, MI, United States). Samples were placed on ice in darkness for 2 h then individually homogenized and centrifuged at 19,000 × g for 20 min at 20°C. Supernatants were diluted with HPLC water (purified in house) to make a solution of 75% water, 25% supernatant. Lipids were partially purified on C18 solid phase extraction columns (Agilent, Palo Alto, CA, United States). A series of four elutions with 1.5 mL of 60%, 75%, 85%, and 100% methanol were collected ([Stuart et al., 2013]; [Leishman et al., 2016a],[b], [2018]).
As previously described ([Bradshaw et al., 2006]; [Tan et al., 2006]; [Smoum et al., 2010]; [Stuart et al., 2013]; [Tortoriello et al., 2013]; [Raboune et al., 2014]; [Leishman et al., 2016a],[b], [2017], [2018]), samples were analyzed using an Applied Biosystems API 3000 triple quadrupole mass spectrometer with electrospray ionization (Foster City, CA, United States). Using an Agilent XDB-C18 reversed phase analytical column and optimized mobile phase gradients, 20 μL from each elution were chromatographed. Two Shimadzu 10ADvp pumps (Columbia, MD, United States) provided the pressure for gradient elution. Mobile phase A: 20% methanol, 80% water (v/v) and 1 mM ammonium acetate (Sigma, St. Louis, MO, United States). Mobile phase B: 100% methanol, 1 mM ammonium acetate. Every method run began with 0% mobile phase B, reached 100% mobile phase B flowing at 0.2 mL/min, and gradually returned to 0% mobile phase B.
This screening library will be referred to as the lipidome when discussing data from this study. HPLC/MS/MS data were analyzed using Analyst software (Applied Biosystems) ([Bradshaw et al., 2006]; [Tan et al., 2006]; [Stuart et al., 2013]; [Tortoriello et al., 2013]; [Raboune et al., 2014]; [Leishman et al., 2016a],[b], [2017], [2018]). Chromatograms (Supplementary Figure 3) were generated by determining the retention time of analytes from the analytical column with a [M-1] or [M+1] parent peak and a fragmentation peak corresponding to the programmed values. […]

CCCCCCC(C)(C)c1ccc([C@@H]2C[C@H](O)CC[C@H]2CCCO)c(O)c1 [CP 55,940]
PGF2α level vs vehicle (PND 35 HIPP): ↑ (1-1.49 times higher than vehicle)
number of lipids changed (PND 35 HIPP, 65 detected): 39
2-arachidonoyl glycerol level vs vehicle (PND 35 HYP): ↓↓↓ (2-2.99 times lower than vehicle)
2-linoleoyl glycerol level vs vehicle (PND 35 HYP): ↓↓ (1.50-1.99 times lower than vehicle)
2-oleoyl glycerol level vs vehicle (PND 35 HYP): ↓↓ (1.50-1.99 times lower than vehicle)
2-palmitoyl glycerol level vs vehicle (PND 35 HYP): ↑ (1-1.49 times higher than vehicle)
Arachidonic acid level vs vehicle (PND 35 HYP): ↓ (1-1.49 times lower than vehicle)
Linoleic acid level vs vehicle (PND 35 HYP): ↓ (1-1.49 times lower than vehicle)
N-arachidonoyl GABA level vs vehicle (PND 35 HYP): ↓ (1-1.49 times lower than vehicle)
N-arachidonoyl alanine level vs vehicle (PND 35 HYP): ↓↓ (1.50-1.99 times lower than vehicle)
N-arachidonoyl ethanolamine level vs vehicle (PND 35 HYP): ↓ (1-1.49 times lower than vehicle)
N-arachidonoyl glycine level vs vehicle (PND 35 HYP): ↓ (1-1.49 times lower than vehicle)
N-arachidonoyl phenylalanine level vs vehicle (PND 35 HYP): ↓ (1-1.49 times lower than vehicle)
N-arachidonoyl taurine level vs vehicle (PND 35 HYP): ↓ (1-1.49 times lower than vehicle)
N-docosahexaenoyl GABA level vs vehicle (PND 35 HYP): ↓ (1-1.49 times lower than vehicle)
N-docosahexaenoyl ethanolamine level vs vehicle (PND 35 HYP): ↓↓ (1.50-1.99 times lower than vehicle)
N-linoleoyl alanine level vs vehicle (PND 35 HYP): ↓ (1-1.49 times lower than vehicle)
N-oleoyl GABA level vs vehicle (PND 35 HYP): ↓ (1-1.49 times lower than vehicle)
N-oleoyl alanine level vs vehicle (PND 35 HYP): ↓ (1-1.49 times lower than vehicle)
N-oleoyl ethanolamine level vs vehicle (PND 35 HYP): ↓↓ (1.50-1.99 times lower than vehicle)
N-palmitoyl ethanolamine level vs vehicle (PND 35 HYP): ↓↓ (1.50-1.99 times lower than vehicle)
N-palmitoyl leucine level vs vehicle (PND 35 HYP): ↑ (1-1.49 times higher than vehicle)
N-stearoyl ethanolamine level vs vehicle (PND 35 HYP): ↓ (1-1.49 times lower than vehicle)
Oleic Acid level vs vehicle (PND 35 HYP): ↓ (1-1.49 times lower than vehicle)
PGE2 level vs vehicle (PND 35 HYP): ↓ (1-1.49 times lower than vehicle)
PGF2α level vs vehicle (PND 35 HYP): ↑ (1-1.49 times higher than vehicle)
phosphoLEA level vs vehicle (PND 35 HYP): ↑ (1-1.49 times higher than vehicle)
2-linoleoyl glycerol level vs vehicle (PND 35 MID): ↓ (1-1.49 times lower than vehicle)
6-ketoPGF1α level vs vehicle (PND 35 MID): ↓ (1-1.49 times lower than vehicle)
Arachidonic acid level vs vehicle (PND 35 MID): ↓ (1-1.49 times lower than vehicle)
N- stearoyl valine level vs vehicle (PND 35 MID): ↑ (1-1.49 times higher than vehicle)
N-arachidonoyl GABA level vs vehicle (PND 35 MID): ↓ (1-1.49 times lower than vehicle)
N-arachidonoyl alanine level vs vehicle (PND 35 MID): ↓ (1-1.49 times lower than vehicle)
N-arachidonoyl glycine level vs vehicle (PND 35 MID): ↓ (1-1.49 times lower than vehicle)
N-arachidonoyl serine level vs vehicle (PND 35 MID): ↓ (1-1.49 times lower than vehicle)
N-arachidonoyl taurine level vs vehicle (PND 35 MID): ↓ (1-1.49 times lower than vehicle)
N-arachidonoyl tyrosine level vs vehicle (PND 35 MID): ↓ (1-1.49 times lower than vehicle)
N-docosahexaenoyl GABA level vs vehicle (PND 35 MID): ↓ (1-1.49 times lower than vehicle)
N-docosahexaenoyl alanine level vs vehicle (PND 35 MID): ↓ (1-1.49 times lower than vehicle)
N-docosahexaenoyl glycine level vs vehicle (PND 35 MID): ↓ (1-1.49 times lower than vehicle)
N-docosahexaenoyl leucine level vs vehicle (PND 35 MID): ↑ (1-1.49 times higher than vehicle)
N-docosahexaenoyl methionine level vs vehicle (PND 35 MID): ↓ (1-1.49 times lower than vehicle)
N-docosahexaenoyl serine level vs vehicle (PND 35 MID): ↓ (1-1.49 times lower than vehicle)
N-docosahexaenoyl tyrosine level vs vehicle (PND 35 MID): ↓ (1-1.49 times lower than vehicle)
N-docosahexaenoyl valine level vs vehicle (PND 35 MID): ↑↑ (1.50-1.99 times higher than vehicle)
N-linoleoyl ethanolamine level vs vehicle (PND 35 MID): ↑ (1-1.49 times higher than vehicle)
N-oleoyl GABA level vs vehicle (PND 35 MID): ↓ (1-1.49 times lower than vehicle)
N-oleoyl ethanolamine level vs vehicle (PND 35 MID): ↓ (1-1.49 times lower than vehicle)
N-oleoyl phenylalanine level vs vehicle (PND 35 MID): ↑ (1-1.49 times higher than vehicle)
N-oleoyl valine level vs vehicle (PND 35 MID): ↑ (1-1.49 times higher than vehicle)
N-palmitoyl leucine level vs vehicle (PND 35 MID): ↑ (1-1.49 times higher than vehicle)
N-palmitoyl phenylalanine level vs vehicle (PND 35 MID): ↑ (1-1.49 times higher than vehicle)
N-palmitoyl valine level vs vehicle (PND 35 MID): ↑↑ (1.50-1.99 times higher than vehicle)
N-stearoyl methionine level vs vehicle (PND 35 MID): ↑ (1-1.49 times higher than vehicle)
N-stearoyl tyrosine level vs vehicle (PND 35 MID): ↓ (1-1.49 times lower than vehicle)
PGE2 level vs vehicle (PND 35 MID): ↑ (1-1.49 times higher than vehicle)
PGF2α level vs vehicle (PND 35 MID): ↑ (1-1.49 times higher than vehicle)
phosphoLEA level vs vehicle (PND 35 MID): ↑ (1-1.49 times higher than vehicle)
2-arachidonoyl glycerol level vs vehicle (PND 35 STEM): ↓ (1-1.49 times lower than vehicle)
2-linoleoyl glycerol level vs vehicle (PND 35 STEM): ↓ (1-1.49 times lower than vehicle)
N- stearoyl valine level vs vehicle (PND 35 STEM): ↑ (1-1.49 times higher than vehicle)
N-arachidonoyl GABA level vs vehicle (PND 35 STEM): ↓ (1-1.49 times lower than vehicle)
N-arachidonoyl taurine level vs vehicle (PND 35 STEM): ↓ (1-1.49 times lower than vehicle)
N-docosahexaenoyl leucine level vs vehicle (PND 35 STEM): ↑ (1-1.49 times higher than vehicle)
N-docosahexaenoyl valine level vs vehicle (PND 35 STEM): ↑ (1-1.49 times higher than vehicle)
N-oleoyl leucine level vs vehicle (PND 35 STEM): ↑ (1-1.49 times higher than vehicle)
N-oleoyl proline level vs vehicle (PND 35 STEM): ↑ (1-1.49 times higher than vehicle)
N-oleoyl valine level vs vehicle (PND 35 STEM): ↑ (1-1.49 times higher than vehicle)
N-palmitoyl leucine level vs vehicle (PND 35 STEM): ↑ (1-1.49 times higher than vehicle)
N-palmitoyl phenylalanine level vs vehicle (PND 35 STEM): ↑ (1-1.49 times higher than vehicle)
N-palmitoyl proline level vs vehicle (PND 35 STEM): ↑ (1-1.49 times higher than vehicle)
N-palmitoyl tryptophan level vs vehicle (PND 35 STEM): ↓ (1-1.49 times lower than vehicle)
N-palmitoyl valine level vs vehicle (PND 35 STEM): ↑ (1-1.49 times higher than vehicle)
PGE2 level vs vehicle (PND 35 STEM): ↑ (1-1.49 times higher than vehicle)
number of lipids changed (PND 35 STEM, 70 detected): 16
2-arachidonoyl glycerol level vs vehicle (PND 35 STR): ↓ (1-1.49 times lower than vehicle)
2-linoleoyl glycerol level vs vehicle (PND 35 STR): ↓↓ (1.50-1.99 times lower than vehicle)
2-oleoyl glycerol level vs vehicle (PND 35 STR): ↓ (1-1.49 times lower than vehicle)
N- stearoyl valine level vs vehicle (PND 35 STR): ↑ (1-1.49 times higher than vehicle)
N-arachidonoyl GABA level vs vehicle (PND 35 STR): ↓↓ (1.50-1.99 times lower than vehicle)
N-arachidonoyl alanine level vs vehicle (PND 35 STR): ↓ (1-1.49 times lower than vehicle)
N-arachidonoyl glycine level vs vehicle (PND 35 STR): ↓ (1-1.49 times lower than vehicle)
N-arachidonoyl phenylalanine level vs vehicle (PND 35 STR): ↓ (1-1.49 times lower than vehicle)
N-arachidonoyl serine level vs vehicle (PND 35 STR): ↓↓ (1.50-1.99 times lower than vehicle)
N-arachidonoyl taurine level vs vehicle (PND 35 STR): ↓ (1-1.49 times lower than vehicle)
N-arachidonoyl tyrosine level vs vehicle (PND 35 STR): ↓ (1-1.49 times lower than vehicle)
N-docosahexaenoyl GABA level vs vehicle (PND 35 STR): ↓ (1-1.49 times lower than vehicle)
N-docosahexaenoyl alanine level vs vehicle (PND 35 STR): ↓ (1-1.49 times lower than vehicle)
N-docosahexaenoyl ethanolamine level vs vehicle (PND 35 STR): ↓ (1-1.49 times lower than vehicle)
N-docosahexaenoyl leucine level vs vehicle (PND 35 STR): ↑ (1-1.49 times higher than vehicle)
N-docosahexaenoyl serine level vs vehicle (PND 35 STR): ↓ (1-1.49 times lower than vehicle)
N-oleoyl GABA level vs vehicle (PND 35 STR): ↓ (1-1.49 times lower than vehicle)
N-oleoyl alanine level vs vehicle (PND 35 STR): ↓ (1-1.49 times lower than vehicle)
N-oleoyl ethanolamine level vs vehicle (PND 35 STR): ↓↓ (1.50-1.99 times lower than vehicle)
N-oleoyl glycine level vs vehicle (PND 35 STR): ↓ (1-1.49 times lower than vehicle)
N-palmitoyl ethanolamine level vs vehicle (PND 35 STR): ↓ (1-1.49 times lower than vehicle)
N-palmitoyl leucine level vs vehicle (PND 35 STR): ↑ (1-1.49 times higher than vehicle)
N-palmitoyl valine level vs vehicle (PND 35 STR): ↑↑ (1.50-1.99 times higher than vehicle)
N-stearoyl alanine level vs vehicle (PND 35 STR): ↓ (1-1.49 times lower than vehicle)
N-stearoyl leucine level vs vehicle (PND 35 STR): ↓ (1-1.49 times lower than vehicle)
N-stearoyl serine level vs vehicle (PND 35 STR): ↓ (1-1.49 times lower than vehicle)
PGE2 level vs vehicle (PND 35 STR): ↑ (1-1.49 times higher than vehicle)
